Results from patent US11358933B2, “Compounds and methods for inhibiting CYP26 enzymes” (Queen's University at Kingston, priority 2017, dated 2022).

How the values were obtained:
[1] = system: mouse OP9 bone marrow stromal cells; assay: RA metabolism by OP9 bone marrow stromal cells; type: cell-based
Protocol: (§1) These experiments are to assess the ability of primary cells, or cell lines to metabolize RA, and to determine the effect of inhibition of CYP26A1 or CYP26B1 on this ability. For these experiments, cells are plated into 48-well plates and treated with a radiolabeled (^3H) RA. The extent of conversion of this labeled RA to water soluble metabolites is determined as above for in the cell-based inhibitor assay. Primary human bone marrow stromal cells (available from Lonza) were cultured in MyeloCult (available from Stem Cell Technologies, Vancouver, Canada). Mouse OP9 bone marrow stromal cells and MC3T3 pre-osteoblasts were cultured as above. Cells are plated in the appropriate culture medium and allowed to form a monolayer. Cells are then pre-treated with either DMSO (vehicle control) or RA (1 μM) for 24 hours to induce CYP26 expression. Vehicle, and RA induced cells are then exposed to ^3H-RA in the presence or absence of test CYP26 inhibitor to examine the effects on RA metabolism. Cells are incubated for 3 hours with labeled RA, and metabolites extracted and analyzed as above.

[2] = system: RA target gene (CYP26A1) expression in MCF-7 cells; assay: Enhancement of RA activity assay, QPCR of CYP26A1 expression in MCF-7 cells; type: cell-based; conditions: 0.1 μM RA plus 1 μM compound, 24, 48, 72 hours
Protocol: An RA activity assay was used to measure the ability of compounds that inhibit CYP26 to enhance activity of RA, for example, by limiting its catabolism. This assay measured expression of endogenous RA target genes in MCF-7 cells that have been treated with RA and a compound of interest. A compound that inhibits CYP26 activity will have the effect of prolonging the induction of RA target genes in response to RA.
Exponentially growing MCF-7 cells were treated with trypsin, collected and plated into 6-well culture dishes at 300,000 cells per well. Once cells had reached confluency, they were treated with CYP26 inhibitor test compounds or with ketoconazole (a non-selective CYP inhibitor) at a final concentration of 1 μM, or an equal volume of DMSO as a control. […] RNA was harvested using Trizol reagent after 24, 48, and 72 hours of treatment. cDNA was synthesized from 2 μg of total RNA using Superscript III cDNA synthesis kit with random priming (available from Life Technologies, Burlington, ON, Canada). Analysis of expression of the RA inducible CYP26A1 gene was quantified by qPCR normalized against expression of PMM2 with Sybr Select Master Mix (Life Technologies) and gene specific primers in a two-step thermal cycling reaction. Data is provided for a CYP26B1 selective inhibitor, which enhances the induction of CYP26A1. […]

human AML THP-1 cells = assay: Leukemia cell differentiation by FACS (PE-CD11b), THP-1 cells with or without OP9 stroma; type: cell-based
Protocol: Many human non-APL AML cell lines are sensitive to RA-induced differentiation. However, co-culture of leukemic cells with bone marrow stromal cells can block this effect of RA. This assay tests the ability of CYP26 inhibitor compounds to overcome the protective effect that stromal cells have on leukemic cell differentiation. For these experiments, OP9 mouse bone marrow stromal cells are grown MEM-α containing 20% FBS, in 24 well plates until a cell monolayer is formed. OP9 cells are then irradiated (15Gy) using a GammaCell 20 cesium-137 source (located at Queen's University) in order to induce growth arrest. Leukemic cells are then added to the irradiated monolayers, or control wells without OP9 cells. AML cell lines (150,000 cells) are then plated onto OP9 monolayers in their appropriated growth medium; THP-1 RPMI-1640 medium containing 10% FBS; MDSL, RPMI-1640 medium containing 10% FBS and 10 ng/ml recombinant human IL-3; Kasumi-1, RPMI-1640 containing 20% FBS; MV4-11, IMDM containing 10% FBS. Cells are then treated for 72 hours with DMSO (vehicle control), RA (0.1 μM for THP-1 and MV4-11 cells, and 1 μM for Kasumi-1 cells), test CYP26 inhibitor compound, or the combination of RA and inhibitor compound. After the treatment period, leukemic cells are collected and stained with fluorophore labeled antibodies against cell surface antigens indicative of myeloid differentiation (PE-CD11b), or of stem cell populations (FITC-CD34, PE-CD38); all antibodies are available from BD Biosciences. Stained cells are then sorted by FACS in a BD FACS Aria 3 flow cytometer (Queen's University) using FACS Diva software, to assess percentage of cells that are CD11b^+, the relative expression levels of CD11b (by median fluorescence intensity—MFI), or percentage of CD34^+CD38^− leukemic stem cells (LSCs). Results are typically presented as the average of triplicates.

[3] = system: bone marrow mononuclear cells of mice; assay: Induction of RA activity in mouse bone marrow (QPCR of RA target genes); type: in vivo; conditions: intravenous 40 μg/kg once per day for two days, versus vehicle
Protocol: Human and mouse bone marrow stromal cells express CYP26 enzymes and Cyp26B1 is highly inducible by RA in these cells. This experiment tests whether exposure of bone marrow to a CYP26 inhibitor is sufficient to raise RA levels in the bone marrow and induce RA-target genes. Mice (8-12 week old) were given intravenous injections (tall vein) on two consecutive days (once per day) of CYP26 inhibitor compound dissolved in 0.9% sodium chloride/0.1% DMSO. Animals were given a dose of 40 μg/kg of inhibitor, or an equal volume of vehicle alone. The morning after the second injection, animals were sacrificed, and bone marrow mononuclear cells were harvested from femurs using Lympholyte-mammal reagent (available from Cedarlane, Burlington, Canada). RNA was then extracted from isolated cells, and RA target gene expression assessed by qPCR.

MC3T3 cells = assay: RA metabolism by MC3T3 pre-osteoblasts; type: cell-based, mouse
Protocol: as §1

CC(C)(C)c1cccc(-c2cc3cc(/C=C/C(=O)O)ccc3[nH]2)c1 [Compound 026]
RA metabolism, basal and RA-induced [1]: efficiently blocked basal and RA-induced RA metabolism
RA target gene transcription on co-treatment with RA [2]: enhanced RA target gene transcription, and prolonged this response to at least 72 hours
PE-CD11b MFI (human AML THP-1 cells; 0.1 μM RA plus 1 μM compound, OP9 stroma present, 72 hours): greatly enhanced CD11b MFI
Sensitization to low doses of RA (human AML THP-1 cells; in the presence of stroma): sensitized THP-1 cells to low doses of RA
Expression of Cyp26a1 and Crabp2 in bone marrow mononuclear cells [3]: both induced
RA metabolism, basal and RA-induced (MC3T3 cells): block basal as well as RA-induced RA metabolism in these cells in a dose-dependent manner
